The source of these data is the supplement of paper PMC10307832.

What all share (experiment): relative viability (nuclei count vs DMSO), 5 days (fraction); higher = more cells survive
Compound in the assay “Imatinib + Trametinib”: Cc1ccc(NC(=O)c2ccc(CN3CCN(C)CC3)cc2)cc1Nc1nccc(-c2cccnc2)n1 [Imatinib] + CC(=O)Nc1cccc(-n2c(=O)n(C3CC3)c(=O)c3c(Nc4ccc(I)cc4F)n(C)c(=O)c(C)c32)c1 [Trametinib] (partner 0.02 µM)
In a few lines:
(§1)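 Values are medians from duplicate plates. Each reflects relative viability, defined as the nuclei count of treated wells over that of vehicle wells. Lung cancer cell lines in 1536-well plates were pin-tool dosed one day after seeding with one drug alone or with a fixed anchor-drug dose plus five library-drug doses (not always all listed) in √10 steps, then fixed, stained and imaged at 4× after 5 days.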

Compound in the assay “Imatinib + Alpelisib”: Cc1ccc(NC(=O)c2ccc(CN3CCN(C)CC3)cc2)cc1Nc1nccc(-c2cccnc2)n1 [Imatinib] + Cc1nc(NC(=O)N2CCC[C@H]2C(N)=O)sc1-c1ccnc(C(C)(C)C(F)(F)F)c1 [Alpelisib] (partner 2 µM)
In a few lines:
as §1

Compound in the assay “Imatinib + Dasatinib”: Cc1ccc(NC(=O)c2ccc(CN3CCN(C)CC3)cc2)cc1Nc1nccc(-c2cccnc2)n1 [Imatinib] + Cc1nc(Nc2ncc(C(=O)Nc3c(C)cccc3Cl)s2)cc(N2CCN(CCO)CC2)n1 [Dasatinib] (partner 0.075 µM)
In a few lines:
as §1

Compound in the assay “Imatinib + Pictilisib”: Cc1ccc(NC(=O)c2ccc(CN3CCN(C)CC3)cc2)cc1Nc1nccc(-c2cccnc2)n1 [Imatinib] + CS(=O)(=O)N1CCN(Cc2cc3nc(-c4cccc5[nH]ncc45)nc(N4CCOCC4)c3s2)CC1 [Pictilisib] (partner 1 µM)
In a few lines:
as §1

In the case of LCLC-103H, the relative viability was found to be 0.752 with Imatinib + Trametinib (first compound 0.02 µM); 0.673 in the assay with Imatinib + Trametinib (first compound 0.06325 µM); 0.742 with Imatinib + Trametinib (first compound 0.2 µM); 0.655 in the assay with Imatinib + Trametinib (first compound 0.6325 µM); 0.658 with Imatinib + Trametinib (first compound 2 µM); 0.909 with Imatinib + Alpelisib (first compound 0.02 µM). The relative viability turned out to be 0.9 in the assay with Imatinib + Alpelisib (first compound 0.2 µM); 0.851 in the assay with Imatinib + Alpelisib (first compound 0.6325 µM); 0.637 with Imatinib + Dasatinib (first compound 0.02 µM); 0.436 with Imatinib + Dasatinib (first compound 0.06325 µM); 0.471 with Imatinib + Dasatinib (first compound 0.2 µM); 0.471 in the assay with Imatinib + Dasatinib (first compound 0.6325 µM). In addition, the relative viability with Imatinib + Dasatinib (first compound 2 µM) is 0.388; with Imatinib + Pictilisib (first compound 0.02 µM) it was 0.67; with Imatinib + Pictilisib (first compound 0.2 µM) it was 0.692; with Imatinib + Pictilisib (first compound 0.6325 µM) it was 0.578.

Consider HOP-62, for which the relative viability in the assay with Imatinib + Trametinib (first compound 0.02 µM) stood at 0.376; with Imatinib + Trametinib (first compound 0.2 µM) it was 0.359; with Imatinib + Trametinib (first compound 0.6325 µM), 0.357; with Imatinib + Trametinib (first compound 2 µM), 0.401; in the assay with Imatinib + Alpelisib (first compound 0.02 µM), 1.13; in the assay with Imatinib + Alpelisib (first compound 0.2 µM), 0.758. Moreover, the relative viability in the assay with Imatinib + Alpelisib (first compound 2 µM) worked out at 0.934; with Imatinib + Dasatinib (first compound 0.02 µM) it was 0.726; with Imatinib + Dasatinib (first compound 0.2 µM), 0.642; with Imatinib + Dasatinib (first compound 0.6325 µM), 0.576; with Imatinib + Dasatinib (first compound 2 µM), 0.54; with Imatinib + Pictilisib (first compound 0.02 µM), 0.775. Besides, the results for the relative viability with Imatinib + Pictilisib (first compound 0.2 µM), in the assay with Imatinib + Pictilisib (first compound 0.6325 µM) and with Imatinib + Pictilisib (first compound 2 µM) were 0.822, 0.569 and 0.958, respectively.
